This is an account of results in PubChem BioAssay AID435021 (Vanderbilt High Throughput Screening Facility, 2010).

The source made the active and inactive calls.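 Rule for the calls: active = response to a near-maximal acetylcholine dose cut to 15% or less of untreated controls; inactive = the rest.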

The target in the experiment is Muscarinic acetylcholine receptor M1 (Homo sapiens) (UniProt P11229). Description: M1 receptor antagonist activity of analogs, SAR follow-up, cell-based, CHO-K1 hM1, Fluo-4 calcium, ACh EC80 (AID 435021). The note with it: at 30 µM, active compounds read low.
Sequence of Muscarinic acetylcholine receptor M1 (Homo sapiens) (P11229 whole entry, looked up): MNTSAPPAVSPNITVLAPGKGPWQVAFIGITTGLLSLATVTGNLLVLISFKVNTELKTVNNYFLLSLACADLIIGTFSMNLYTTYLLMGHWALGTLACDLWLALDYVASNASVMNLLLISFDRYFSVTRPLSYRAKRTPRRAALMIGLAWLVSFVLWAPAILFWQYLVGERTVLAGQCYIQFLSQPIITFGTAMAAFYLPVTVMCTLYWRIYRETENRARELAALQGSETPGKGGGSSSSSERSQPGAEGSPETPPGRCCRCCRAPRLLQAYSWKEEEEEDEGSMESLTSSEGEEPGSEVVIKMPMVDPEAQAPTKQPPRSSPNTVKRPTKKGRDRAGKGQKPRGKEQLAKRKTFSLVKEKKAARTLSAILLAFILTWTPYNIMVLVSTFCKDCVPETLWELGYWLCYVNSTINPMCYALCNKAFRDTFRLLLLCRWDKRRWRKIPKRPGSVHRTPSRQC
As for `O=C(CCNS(=O)(=O)c1cccc2nsnc12)N1CCN(c2nc3ccccc3s2)CC1`, the remaining EC80 response is 6.19%. For the compound `COc1cccnc1N1CCN(C(=O)CCNS(=O)(=O)c2cn(C)c(C)n2)CC1`, the remaining EC80 response was 98.5% (inactive).

Regarding `COc1cccnc1N1CCN(C(=O)CCNS(=O)(=O)c2ccc([N+](=O)[O-])cc2)CC1`, the remaining EC80 response was 92.7% (inactive). Next, `O=C(CCNS(=O)(=O)c1cccc2nsnc12)N1CCN(c2ccc(Br)cn2)CC1`: -0.332%; `COc1cccnc1N1CCN(C(=O)CCNS(=O)(=O)c2cccc(-c3noc(C)n3)c2)CC1`: 97.5% (inactive); `Cc1cc(Cl)nc(N2CCN(C(=O)CCNS(=O)(=O)c3cccc4nsnc34)CC2)c1C#N`: 3.37%.

On to `COc1cccnc1N1CCN(C(=O)CCNS(=O)(=O)c2ccccc2[N+](=O)[O-])CC1`, for which the remaining EC80 response is 90% (inactive). `O=C(CCNS(=O)(=O)c1cccc2nsnc12)N1CCN(c2ncccc2C(F)(F)F)CC1`: the remaining EC80 response is 64.7% (inactive).

For `O=C(CCNS(=O)(=O)c1cccc2nsnc12)N1CCN(c2nc(Cl)ns2)CC1`, the remaining EC80 response is 31.6% (inactive). Next, `O=C(CCNS(=O)(=O)c1cccc2nsnc12)N1CCN(c2cccc(Cl)n2)CC1`: 5.92%; `O=C([C@H](F)CNS(=O)(=O)c1cccc2nonc12)N1CCN(c2ccncc2)CC1`: 8.19%.

Regarding `O=C(CCNS(=O)(=O)c1cccc2nsnc12)N1CCN(c2ccncc2)CC1`, the remaining EC80 response is 1.97%. For `O=C(CCNS(=O)(=O)c1cccc2nsnc12)N1CCN(c2ncc(Cl)cn2)CC1`, the remaining EC80 response was 7.16%. Next, `O=C(CCNS(=O)(=O)c1cccc2nsnc12)N1CCN(c2cc(Cl)ccn2)CC1`: 10.1%; `Cc1cnccc1N1CCN(C(=O)CCNS(=O)(=O)c2cccc3nsnc23)CC1`: 1.43%.

In the case of `COc1cccnc1N1CCN(C(=O)CCNS(=O)(=O)c2cccc(C#N)c2)CC1`, the remaining EC80 response is 97% (inactive). Turning to `O=C(CCNS(=O)(=O)c1cccc2nsnc12)N1CCN(c2ccccn2)CC1`, the remaining EC80 response is 16.5% (inactive). Consider `O=C(CCNS(=O)(=O)c1cccc2nsnc12)N1CCN(c2ccnc(Cl)c2)CC1`, for which the remaining EC80 response is 8.91%.

For the compound `Cc1ccnc(N2CCN(C(=O)CCNS(=O)(=O)c3cccc4nsnc34)CC2)c1`, the remaining EC80 response is 45.8% (inactive). Next, `O=C(CCNS(=O)(=O)c1cccc2nsnc12)N1CCN(c2cccnc2)CC1`: 13.6%; `O=C(C(F)CNS(=O)(=O)c1cccc2nsnc12)N1CCN(c2ccncc2)CC1` (stereo unspecified): 13.6%. With `COc1cccc(N2CCN(C(=O)CCNS(=O)(=O)c3cccc4nsnc34)CC2)n1`, the remaining EC80 response was 14.4%.

Take `Cc1cccc(N2CCN(C(=O)CCNS(=O)(=O)c3cccc4nsnc34)CC2)n1`: the remaining EC80 response is 35.7% (inactive). Next, `CN(CCC(=O)N1CCN(c2ccncc2)CC1)S(=O)(=O)c1cccc2nsnc12`: 35.8% (inactive); `COc1cccnc1N1CCN(C(=O)C(F)CNS(=O)(=O)c2cccc3nsnc23)CC1` (stereo unspecified): 19.4% (inactive); `O=C(CCNS(=O)(=O)c1cccc2nsnc12)N1CCN(c2cc(F)ccn2)CC1`: 6.52%. With `COc1cccnc1N1CCN(C(=O)CCNS(=O)(=O)c2ccc3nsnc3c2)CC1` the figure was 77.1% (inactive); with `O=C(CCNS(=O)(=O)c1cccc2nsnc12)N1CCN(c2ncccn2)CC1`, 62.7% (inactive). Next, `N#Cc1ccccc1N1CCN(C(=O)CCNS(=O)(=O)c2cccc3nsnc23)CC1`: 43.9% (inactive); `O=C(C(F)CNS(=O)(=O)c1cccc2nonc12)N1CCN(c2ccncc2)CC1` (stereo unspecified): 2.42%; `COc1cccnc1N1CCN(C(=O)CCNS(=O)(=O)c2ccccc2C#N)CC1`: 91.8% (inactive). For `O=C(CCNS(=O)(=O)c1cccc2nsnc12)N1CCN(c2nc3ccccc3o2)CC1`, the remaining EC80 response is 13.3%.

With `O=C([C@@H](F)CNS(=O)(=O)c1cccc2nonc12)N1CCN(c2ccncc2)CC1`, the remaining EC80 response is 56.6% (inactive). On to `O=C(CCNS(=O)(=O)c1cccc2nsnc12)N1CCN(c2nccs2)CC1`, for which the remaining EC80 response is 5.68%.

Regarding `COc1cccnc1N1CCN(C(=O)C(F)CNS(=O)(=O)c2cccc3nonc23)CC1` (stereo unspecified), the remaining EC80 response was 29.7% (inactive). With `O=C(CCNS(=O)(=O)c1cccc2nsnc12)N1CCN(c2cccc(F)n2)CC1`, the remaining EC80 response is 3.23%. For `O=C(CCNS(=O)(=O)c1cccc2nsnc12)N1CCN(c2cc(C(F)(F)F)ccn2)CC1`, the remaining EC80 response is 35.4% (inactive). Take `O=C(CCNS(=O)(=O)c1cccc2nonc12)N1CCN(c2ccc(Br)cn2)CC1`: the remaining EC80 response is 0.916%. With `O=C(CCNS(=O)(=O)c1cccc2nonc12)N1CCN(c2ccncc2)CC1` the figure was 3.02%.

Consider `COc1ccccc1N1CCN(C(=O)CCNS(=O)(=O)c2cccc3nsnc23)CC1`, for which the remaining EC80 response is 102% (inactive). As to `O=C(CCNS(=O)(=O)c1cccc2nsnc12)N1CCN(c2ccccc2F)CC1`, the remaining EC80 response is 63.5% (inactive).
